Reference: PubChem BioAssay AID1259407 (Chemical Carcinogenesis Research Information System (CCRIS), 2018)
Active and inactive are the calls of the source. The rule behind the calls is not given here.

Test system: CCRIS mutagenicity, Ames/micronucleus/aberration tests
Experiment: CCRIS mutagenicity studies
[1] = Test System: AMES SALMONELLA TYPHIMURIUM, Strain/Indicator: TA100, Metabolic Activation: NONE, Method: STANDARD PLATE
[2] = Test System: AMES SALMONELLA TYPHIMURIUM, Strain/Indicator: TA100, Metabolic Activation: NONE, Method: PREINCUBATION
[3] = Test System: MOUSE LYMPHOMA, Strain/Indicator: L5178Y (TK+/TK-), Metabolic Activation: RAT, LIVER, S-9, AROCLOR 1254, Method: SUSPENSION/PLATE

`O=CN(O)c1ccc(Oc2c(Cl)cc(Cl)cc2Cl)cc1` was tested, and the mutagenic call [1] was “inactive; negative” and the mutagenic call (Test System: AMES SALMONELLA TYPHIMURIUM, Strain/Indicator: TA100, Metabolic Activation: RAT, LIVER, S-9, KANECLOR 500, Method: STANDARD PLATE) was “active; positive”.
With `CC(=O)N[C@@H](CSC(Cl)=C(Cl)Cl)C(=O)O` the mutagenic call [2] was “active; positive” and the mutagenic call (Test System: AMES SALMONELLA TYPHIMURIUM, Strain/Indicator: TA100, Metabolic Activation: RAT, KIDNEY, CYTOSOL, Method: PREINCUBATION) was “active; positive”.
For `CCn1cc(C(=O)O)c(=O)c2ccc(C)nc21`, the mutagenic call (End Point: In vitro micronucleus, Test System: WTK-1 human lymphoma cells, Metabolic Activation: None) was “inactive; negative”, the mutagenic call (Test System: AMES SALMONELLA TYPHIMURIUM, Strain/Indicator: TA97, Metabolic Activation: HAMSTER, LIVER, S-9, AROCLOR 1254 (10% OR 30%), Method: PREINCUBATION) was “inactive; negative” and the mutagenic call (Test System: AMES SALMONELLA TYPHIMURIUM, Strain/Indicator: TA97, Metabolic Activation: HAMSTER, LIVER, S-9, AROCLOR 1254 (10 OR 30%), Method: PREINCUBATION) was “inactive; negative”. The mutagenic call (Test System: AMES SALMONELLA TYPHIMURIUM, Strain/Indicator: TA97, Metabolic Activation: NONE, Method: PREINCUBATION) was “inactive; negative”, the mutagenic call (Test System: AMES SALMONELLA TYPHIMURIUM, Strain/Indicator: TA97, Metabolic Activation: RAT, LIVER, S-9, AROCLOR 1254 (10% OR 30%), Method: PREINCUBATION) was “inactive; negative” and the mutagenic call (Test System: AMES SALMONELLA TYPHIMURIUM, Strain/Indicator: TA97, Metabolic Activation: RAT, LIVER, S-9, AROCLOR 1254 (10 OR 30%), Method: PREINCUBATION) was “inactive; negative”. For the same molecule, the mutagenic call (Test System: AMES SALMONELLA TYPHIMURIUM, Strain/Indicator: TA98, Metabolic Activation: HAMSTER, LIVER, S-9, AROCLOR 1254 (10% OR 30%), Method: PREINCUBATION) was “inactive; negative”, the mutagenic call (Test System: AMES SALMONELLA TYPHIMURIUM, Strain/Indicator: TA98, Metabolic Activation: HAMSTER, LIVER, S-9, AROCLOR 1254 (10 OR 30%), Method: PREINCUBATION) was “inactive; negative” and the mutagenic call (Test System: AMES SALMONELLA TYPHIMURIUM, Strain/Indicator: TA98, Metabolic Activation: NONE, Method: PREINCUBATION) was “inactive; negative”. For the same molecule, the mutagenic call (Test System: AMES SALMONELLA TYPHIMURIUM, Strain/Indicator: TA98, Metabolic Activation: RAT, LIVER, S-9, AROCLOR 1254 (10% OR 30%), Method: PREINCUBATION) was “inactive; negative”, the mutagenic call (Test System: AMES SALMONELLA TYPHIMURIUM, Strain/Indicator: TA98, Metabolic Activation: RAT, LIVER, S-9, AROCLOR 1254 (10 OR 30%), Method: PREINCUBATION) was “inactive; negative” and the mutagenic call (Test System: AMES SALMONELLA TYPHIMURIUM, Strain/Indicator: TA100, Metabolic Activation: HAMSTER, LIVER, S-9, AROCLOR 1254 (10%), Method: PREINCUBATION) was “inactive; negative”. The mutagenic call (Test System: AMES SALMONELLA TYPHIMURIUM, Strain/Indicator: TA100, Metabolic Activation: HAMSTER, LIVER, S-9, AROCLOR 1254 (30%), Method: PREINCUBATION) was “inactive; negative”, the mutagenic call [2] was “inactive; negative” and the mutagenic call (Test System: AMES SALMONELLA TYPHIMURIUM, Strain/Indicator: TA100, Metabolic Activation: RAT, LIVER, S-9, AROCLOR 1254 (10% OR 30%), Method: PREINCUBATION) was “inactive; negative”. For the same molecule, the mutagenic call (Test System: AMES SALMONELLA TYPHIMURIUM, Strain/Indicator: TA100, Metabolic Activation: RAT, LIVER, S-9, AROCLOR 1254 (10 OR 30%), Method: PREINCUBATION) was “inactive; negative”, the mutagenic call (Test System: AMES SALMONELLA TYPHIMURIUM, Strain/Indicator: TA102, Metabolic Activation: NONE, Method: STANDARD PLATE) was “active; positive” and the mutagenic call (Test System: AMES SALMONELLA TYPHIMURIUM, Strain/Indicator: TA1535, Metabolic Activation: HAMSTER, LIVER, S-9, AROCLOR 1254 (10% OR 30%), Method: PREINCUBATION) was “inactive; negative”. For the same molecule, the mutagenic call (Test System: AMES SALMONELLA TYPHIMURIUM, Strain/Indicator: TA1535, Metabolic Activation: HAMSTER, LIVER, S-9, AROCLOR 1254 (10 OR 30%), Method: PREINCUBATION) was “inactive; negative”, the mutagenic call (Test System: AMES SALMONELLA TYPHIMURIUM, Strain/Indicator: TA1535, Metabolic Activation: NONE, Method: PREINCUBATION) was “inactive; negative” and the mutagenic call (Test System: AMES SALMONELLA TYPHIMURIUM, Strain/Indicator: TA1535, Metabolic Activation: RAT, LIVER, S-9, AROCLOR 1254 (10% OR 30%), Method: PREINCUBATION) was “inactive; negative”. The mutagenic call (Test System: AMES SALMONELLA TYPHIMURIUM, Strain/Indicator: TA1535, Metabolic Activation: RAT, LIVER, S-9, AROCLOR 1254 (10 OR 30%), Method: PREINCUBATION) was “inactive; negative”, the mutagenic call (Test System: AMES SALMONELLA TYPHIMURIUM, Strain/Indicator: TA2638, Metabolic Activation: NONE, Method: STANDARD PLATE) was “inactive; negative” and the mutagenic call (Test System: CHINESE HAMSTER V-79, Strain/Indicator: V-79 (HPRT)/6-THIOGUANINE, Metabolic Activation: NONE) was “inactive; negative”. The mutagenic call (Test System: E. COLI, Strain/Indicator: WP2 (PKM101), Metabolic Activation: NONE, Method: STANDARD PLATE) was “active; positive”, the mutagenic call (Test System: E. COLI, Strain/Indicator: WP2 UVRA (PKM101), Metabolic Activation: NONE, Method: STANDARD PLATE) was “active; positive” and the mutagenic call (Test System: MOUSE LYMPHOMA, Strain/Indicator: L5178Y (HPRT)/6-THIOGUANINE, Metabolic Activation: NONE, Method: FLUCTUATION TEST) was “inactive; negative”. The mutagenic call (Test System: MOUSE LYMPHOMA, Strain/Indicator: L5178Y (TK+/TK-), Metabolic Activation: NONE, Method: FLUCTUATION TEST) was “inactive; negative”, the mutagenic call (Test System: MOUSE LYMPHOMA, Strain/Indicator: L5178Y (TK+/TK-), Metabolic Activation: NONE, Method: SUSPENSION/PLATE) was “inactive; negative” and the mutagenic call [3] was “inactive; negative”.
In the case of `Nc1cccc2cc3ccccc3cc12`, the mutagenic call (Test System: AMES SALMONELLA TYPHIMURIUM, Strain/Indicator: TA98, Metabolic Activation: NONE, Method: STANDARD PLATE) is reported as “inactive; negative”, the mutagenic call (Test System: AMES SALMONELLA TYPHIMURIUM, Strain/Indicator: TA98, Metabolic Activation: RAT LIVER, CYTOSOL, AROCLOR 1254, Method: STANDARD PLATE) is reported as “inactive; negative” and the mutagenic call (Test System: AMES SALMONELLA TYPHIMURIUM, Strain/Indicator: TA98, Metabolic Activation: RAT LIVER, MICROSOMES, AROCLOR 1254, Method: STANDARD PLATE) is reported as “active; positive”. For the same molecule, the mutagenic call (Test System: AMES SALMONELLA TYPHIMURIUM, Strain/Indicator: TA98, Metabolic Activation: RAT, LIVER, S-9, AROCLOR 1254 (2 OR 4%), Method: STANDARD PLATE) was “active; positive”, the mutagenic call (Test System: AMES SALMONELLA TYPHIMURIUM, Strain/Indicator: TA98, Metabolic Activation: RAT, LIVER, S-9, AROCLOR 1254, Method: STANDARD PLATE) was “active; positive” and the mutagenic call (Test System: AMES SALMONELLA TYPHIMURIUM, Strain/Indicator: TA98, Metabolic Activation: RAT, LIVER, S-9, PHENOBARBITAL, Method: STANDARD PLATE) was “active; positive”. For the same molecule, the mutagenic call [1] was “inactive; negative”, the mutagenic call (Test System: AMES SALMONELLA TYPHIMURIUM, Strain/Indicator: TA100, Metabolic Activation: RAT, LIVER, S-9, AROCLOR 1254 (2%), Method: STANDARD PLATE) was “inactive; negative” and the mutagenic call (Test System: AMES SALMONELLA TYPHIMURIUM, Strain/Indicator: TA100, Metabolic Activation: RAT, LIVER, S-9, AROCLOR 1254, Method: STANDARD PLATE) was “active; positive”. The mutagenic call (Test System: AMES SALMONELLA TYPHIMURIUM, Strain/Indicator: TA100, Metabolic Activation: RAT, LIVER, S-9, PHENOBARBITAL, Method: STANDARD PLATE) was “active; positive”, the mutagenic call (Test System: AMES SALMONELLA TYPHIMURIUM, Strain/Indicator: TA1535, Metabolic Activation: RAT, LIVER, S-9, AROCLOR 1254 (2%), Method: STANDARD PLATE) was “active; positive” and the mutagenic call (Test System: AMES SALMONELLA TYPHIMURIUM, Strain/Indicator: TA1537, Metabolic Activation: RAT, LIVER, S-9, AROCLOR 1254 (2%), Method: STANDARD PLATE) was “active; positive”. For the same molecule, the mutagenic call [3] was “active; positive”.
